From PubChem BioAssay (NCI)
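Growth conditions: 96-well plates. Treatment: test compound, 48 hours, 5 concentrations. Analysis: linear interpolation between bracketing concentrations; unreached endpoints set to highest concentration. TGI: concentration producing complete growth inhibition.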

Assays:
Test in all cases: NCI tumour cell line growth inhibition, 48 h
SF-268 CNS = system: SF-268 CNS
SR leukemia = system: SR leukemia
HOP-92 NSCLC = system: HOP-92 NSCLC
M14 melanoma = system: M14 melanoma
LOX IMVI melanoma = system: LOX IMVI melanoma
MDA-N = system: MDA-N
HT29 colon = system: HT29 colon
DU-145 prostate = system: DU-145 prostate
SK-MEL-28 melanoma = system: SK-MEL-28 melanoma
KM12 colon = system: KM12 colon
RPMI-8226 leukemia = system: RPMI-8226 leukemia
MOLT-4 leukemia = system: MOLT-4 leukemia
CCRF-CEM leukemia = system: CCRF-CEM leukemia
SK-OV-3 ovarian = system: SK-OV-3 ovarian
OVCAR-8 ovarian = system: OVCAR-8 ovarian
SNB-75 CNS = system: SNB-75 CNS
EKVX NSCLC = system: EKVX NSCLC
HCC-2998 colon = system: HCC-2998 colon
PC-3 prostate = system: PC-3 prostate
UACC-257 melanoma = system: UACC-257 melanoma
TK-10 renal = system: TK-10 renal
MDA-MB-435 = system: MDA-MB-435
IGROV1 ovarian = system: IGROV1 ovarian
SK-MEL-5 melanoma = system: SK-MEL-5 melanoma
OVCAR-4 ovarian = system: OVCAR-4 ovarian
786-0 renal = system: 786-0 renal
NCI-H23 lung = system: NCI-H23 lung
MALME-3M melanoma = system: MALME-3M melanoma
A549 NSCLC = system: A549 NSCLC
HCT-15 colon = system: HCT-15 colon
COLO 205 colon = system: COLO 205 colon
SW-620 colon = system: SW-620 colon
MCF7 breast = system: MCF7 breast
SF-295 CNS = system: SF-295 CNS
UACC-62 melanoma = system: UACC-62 melanoma
K-562 leukemia = system: K-562 leukemia
T-47D breast = system: T-47D breast
HOP-62 NSCLC = system: HOP-62 NSCLC
CAKI-1 renal = system: CAKI-1 renal
SN12C renal = system: SN12C renal
MDA-MB-231 breast = system: MDA-MB-231 breast
RXF 393 renal = system: RXF 393 renal
HL-60(TB) leukemia = system: HL-60(TB) leukemia

Measured: TGI

O=C1C=C/C(=N\N=C(c2ccccc2)c2ccccc2)O1
> 10 µM: SF-268 CNS | SR leukemia | HOP-92 NSCLC | M14 melanoma | LOX IMVI melanoma | MDA-N | HT29 colon | DU-145 prostate | SK-MEL-28 melanoma | KM12 colon | RPMI-8226 leukemia | MOLT-4 leukemia | CCRF-CEM leukemia | SK-OV-3 ovarian | OVCAR-8 ovarian | SNB-75 CNS | EKVX NSCLC | HCC-2998 colon | PC-3 prostate | UACC-257 melanoma | TK-10 renal | MDA-MB-435 | IGROV1 ovarian | SK-MEL-5 melanoma | OVCAR-4 ovarian | 786-0 renal | NCI-H23 lung | MALME-3M melanoma | A549 NSCLC | HCT-15 colon | COLO 205 colon | SW-620 colon | MCF7 breast | SF-295 CNS | UACC-62 melanoma | K-562 leukemia | T-47D breast | HOP-62 NSCLC | CAKI-1 renal | SN12C renal | MDA-MB-231 breast | RXF 393 renal | HL-60(TB) leukemia

CC1OC(c2ccc3c(OCc4ccccc4)cccc3c2O)CC(OCc2ccccc2)[C@H]1OCc1ccccc1 (stereo partly specified)
> 10 µM: SF-268 CNS | M14 melanoma | MDA-N | HT29 colon | DU-145 prostate | SK-MEL-28 melanoma | KM12 colon | RPMI-8226 leukemia | MOLT-4 leukemia | CCRF-CEM leukemia | SK-OV-3 ovarian | OVCAR-8 ovarian | SNB-75 CNS | EKVX NSCLC | HCC-2998 colon | PC-3 prostate | UACC-257 melanoma | TK-10 renal | IGROV1 ovarian | SK-MEL-5 melanoma | 786-0 renal | NCI-H23 lung | MALME-3M melanoma | A549 NSCLC | HCT-15 colon | COLO 205 colon | SW-620 colon | MCF7 breast | SF-295 CNS | UACC-62 melanoma | K-562 leukemia | T-47D breast | HOP-62 NSCLC | CAKI-1 renal | SN12C renal | MDA-MB-231 breast | RXF 393 renal | HL-60(TB) leukemia
